Here are results for two molecules from patent US12521379B2, “Use of FK506 for the treatment of pulmonary arterial hypertension” (The Board of Trustees of the Leland Stanford Junior …, priority 2011, dated 2026).

Data set [1] deals with monocrotaline induced pulmonary hypertension. The data set is described as follows: Reversal of monocrotaline induced pulmonary hypertension in rats. In kind it is in vivo, rat. As to the method:
(§1) 3600 FDA approved drugs and bioactive compounds were screened for their ability to activate BMP signaling, using a C2C12 mouse myoblast cell line stably transfected with a reporter plasmid expressing a BMP response element (BRE) from the Id1 promoter fused to the luciferase-gene (BRE-luc). Whether the best qHTS-BMPRII activator can induce Smad phosphorylation (phospho), Id1 expression and promote PAEC survival and tube formation was determined using BMP4 as a positive control. Whether the qHTS-BMPRII-activator would prevent PAH in mice with a conditional deletion in BMPRII in ECs (BMPRII-SCL-CreERT) that develop exaggerated PAH after 3 weeks of hypoxia (10% O2) was determined. In order to assess whether the BMPRII activator could also reverse PAH, we used 2 models of severe experimental PH in rats: 1. Monocrotaline induced pulmonary hypertension with development of severe medial hypertrophy of the pulmonary arteries 3 weeks after injection. 2. SUGEN (VEGF-Receptor blocker) and 3-week chronic hypoxia induced pulmonary hypertension with development of neointima formation in pulmonary arteries 8 weeks after initiation of the stimulus. Both groups were treated with FK-506 for 3 weeks via sc osmotic pump (0.05 mg/kg/d) after PAH and remodeling of the pulmonary arteries was established. The serum level of FK-506 in mice and rats was aimed to be 0.2 ng/ml.

Data set [2] concerns SUGEN and chronic hypoxia induced pulmonary hypertension. The data set is described as follows: Reversal of SUGEN and 3-week chronic hypoxia induced pulmonary hypertension in rats. In kind it is in vivo, rat. To be noted: n=4. As to the method: as §1
Data set [3] relates to WBC count, nuclear NFATc2. Briefly: Immunosuppressive effect at low dose: WBC count and nuclear NFATc2. To be noted: low dose of 0.2 ng/ml. In kind it is in vivo.
A short description of data set [4]: Prevention of PAH in mice with conditional deletion of BMPRII in ECs, 3 weeks of hypoxia. To be noted: mouse, serum, 0.05 mg/kg/day; mice, 0.05 mg/kg/d; read-out: serum levels. It counts as in vivo, mouse. The method, then:
as §1

The test system of data set [5] is mice with a conditional deletion in BMPRII in ECs (BMPRII-SCL-CreERT). The data set is described as above. In kind it is in vivo, mouse. To be noted: 0.05 mg/kg/d, 3-week preventive treatment, 3 weeks of hypoxia, n=5. The method, then: as §1
Data set [6] relates to PAECs. Briefly: PAEC survival. In kind it is cell-based. To be noted: n=5, p<0.001. As to the method: as §1
Data set [7] deals with PAECs harvested from IPAH patients. The data set is described as follows: p-Smad 1/5/8 and Id1 expression in PAECs harvested from IPAH patients. In kind it is cell-based, human. To be noted: PAECs from six different IPAH patients at the time of transplant. The method, then:
as §1

Data set [8] has as its system PAECs. Briefly: Tube formation in an angiogenesis assay. It counts as cell-based. To be noted: n=3, p<0.01. The method, then:
as §1

[9] abbreviates: 3-week sc treatment at established PAH.

On to `C=CC[C@@H]1/C=C(\C)C[C@H](C)C[C@H](OC)[C@H]2O[C@@](O)(C(=O)C(=O)N3CCCC[C@H]3C(=O)O[C@H](/C(C)=C/[C@@H]3CC[C@@H](O)[C@H](OC)C3)[C@H](C)[C@@H](O)CC1=O)[C@H](C)C[C@@H]2OC` [FK-506], for which the survival in data set [1] (after 3-week treatment started 3 weeks after monocrotaline 60 mg s.c.) came to 57%. The RVSP in data set [1] (surviving rats after 3-week treatment, n=14) was found to be 39.5±4.7 mmHg. In data set [2] (setting [9]), the RVH is 0.34±0.02 and the RVSP amounted to 39.5±0.6 mmHg. Besides, the “Neointima formation in small pulmonary arteries per total vessel number” value in data set [2] (alveolar wall and alveolar duct vessels) worked out at 16.2±5.8%. For the same molecule, in data set [3], the “immunosuppressive effect of decreased nuclear NFATc2” value is “nor was an immunosuppressive effect of decreased nuclear NFATc2 measured” and the “total or differential WBC count” value was “no effect”. In addition, in data set [4], the concentration at 3 weeks amounted to 0.2 ng/mL. For the same molecule, in data set [5], the RV systolic pressure was determined as 21±2.3 mmHg and the “RVH (right ventricular hypertrophy)” value amounted to 26.9±4.5.

B1: BMP4: bone morphogenetic protein 4, used as a positive control (protein, UniProt P12644 293-408, looked up)
Bone morphogenetic protein 4: SPKHHSQRARKKNKNCRRHSLYVDFSDVGWNDWIVAPPGYQAFYCHGDCPFPLADHLNSTNHAIVQTLVNSVNSSIPKACCVPTELSAISMLYLDEYDKVVLKNYQEMVVEGCGCR
In the case of B1, in the data set on PAECs [6], the “survival of PAECs” value is given as “improved survival”. Moreover, in data set [7], the Id1 expression is reported as 3/6 patients that did not respond and the “p-Smad 1/5/8” value is 3/6 patients that did not respond. In the data set with PAECs [8], the tube formation result is “induced tube formation”.
